From US6255517A, “Thymol derivatives having anti-tumor activity, and anti-cancer agent comprising the same” (Zee; Ok Pyo, priority 1998, dated 2001) come the findings set out here.

Common to all, as to format: cell-based
Assay [1] has as its system A549. In words: SRB cytotoxicity (anti-tumor activity) in vitro, A549. As to conditions: Homo sapiens. The source says:
(§1) Anti-Tumor (Cyto-Toxicity) Effect in vitro of the Compound According to the Present Invention
(§2) The method for detecting cyto-toxicity employed in the present experiment is Sulforhodamin B Bioassay (SRB) method, which was developed by National Cancer Institute (NCI) in the United States in 1989, for the purpose of measuring anti-tumor activity in vitro.
(§3) The tumor cells used in the experiments via SRB method are listed below:
A549: non small cell lungcarcinoma
(§4) The tumor cells listed above are all human tumor cell-lines, which were distributed from NCI in the United States and subcultured in Korea Chemical Institute. As a culture medium, RPMI 1640 culture medium supplemented with 5% FBS (fetal bovine serum) was used. Cultivation was performed in an 5% CO2 incubator with constant temperature (37° C.) and humidity. The subculture was carried out every three or four days, and a solution of 0.25% tyrosine and 3 mM trans-1,2-diaminocyclohexane-n,n,n,n-tetracetic acid (CDTA) dissolved in PBS (phosphate buffered saline) was used in order to release cells from the surface of the container.
(§5) The test compound synthesized according to the present invention was diluted to have a concentration of 30.0 μg/ml, 10.0 μg/ml, 3.0 μg/ml, 1.0 μg/ml, 0.3 μg/ml and 0.1 μg/ml, respectively, and the cyto-toxicity (anti-tumor activity) of the compound was measured. The maximum concentration of the sample was not more than 30.0 μg/ml. In order to prepare the samples for detection, DMSO (dimethylsulfoxide) was used, if necessary. The concentration of DMSO added was not more than 0.5%. Before added to the tumor cells, the sample solution, which was diluted via several steps, is filtered through a Millipore filter. In a sterile condition, the sample for detecting cyto-toxicity was prepared by means of SRB method using human tumor cell-lines such as A549, SK-OV-3, SK-MEL-2, XF498 and HCT15.
(§6) The subcultured tumor cells were released from the surface of instrument by using tyrosine-CDTA solution, and then charged on a 96-well flat bottom microplate to make the cell number 5×10^3 (A549, HCT15), 1×10^4 (SK-MEL-2, XF498) and 2×10^4 (SK-OV-3) for each cell. The tumor cells are attached on the bottom by cultivating in a CO2 incubator. After removing the culture medium by using an aspirator, the medium is eliminated by using log dose of six concentrations. To each well, 100 μl of 10% TCA (trichloroacetic acid) is added, and the plate was left for 1 hour at 4° C. to fix the cells on the bottom surface of the plate.
(§7) Then, the plate was washed with distilled water 5-6 times to completely remove the residual TCA solution, and dried up at room temperature. To each well of the completely dried plate, 100 μl of dye solution, in which 0.4% SRB solution was dissolved, was added to dye the cells for 30 minutes, and the cells were washed with 1% acetic acid to remove excess SRB which was not combined with the cells. The dyed cell plates were dried at room temperature, and 100 μl of 10 mM trisma base solution was added to each well. The solution was mixed by a titer plate shaker for 10 minutes to elute the dye solution. Then, the absorbance at 520 nm was measured by using a microplate reader.
(§8) In order to calculate the cyto-toxicity (anti-tumor activity) of the samples on tumor cells, the number of tumor cells at the point of adding the sample (Tz, zero time), the number of cells when only an excess amount of culture medium was added instead of the sample and cultured for 48 hours (C, control), and the number of cells when each concentration of the sample was added and cultured for 48 hours (T, test) were measured respectively. The cyto-toxicity was determined according to the following formulas:
(§9) When Tz>T: [(T-Tz)/(C-Tz)]×100
(§10) When Tz<T: [(T-Tz)/Tz]×100
(§11) From the calculated values thus obtained, ED50 (50% effective dose) [the concentration when the sample inhibits 50% of the growth of the tumor cells] was determined by the use of data regression tool of LOTUS program. […]

In assay [2] the test system is SK-OV-3. Nature of the assay: SRB cytotoxicity (anti-tumor activity) in vitro, SK-OV-3. As to conditions: Homo sapiens, SK-OV-3 ovary adenocarcinoma, 48 hours, read-out: ED50 (the source's name).
Description: as §1, §2, §3
SK-OV-3: adenocarcinoma, ovary malignant ascites
as §4, §5, §6, §7, §8, §9, §10, §11

Assay [3] relates to SK-MEL-2. In words: SRB cytotoxicity (anti-tumor activity) in vitro, SK-MEL-2. As to conditions: Homo sapiens, SK-MEL-2 malignant melanoma, 48 hours, read-out: ED50 (the source's name).
Description: as §1, §2, §3
SK-MEL-2: malignant melanoma, metastasis to skin of thigh
as §4, §5, §6, §7, §8, §9, §10, §11

Assay [4] has as its system XF498. Nature of the assay: SRB cytotoxicity (anti-tumor activity) in vitro, XF498. The following applies: Homo sapiens, XF498 central nerve system tumor, 48 hours, read-out: ED50 (the source's name).
Description: as §1, §2, §3
XF498: central nerve system tumor
as §4, §5, §6, §7, §8, §9, §10, §11

For assay [5], the system named is HCT15. Nature of the assay: SRB cytotoxicity (anti-tumor activity) in vitro, HCT15. The following applies: Homo sapiens, HCT-15, HCT15 colon adenocarcinoma, 48 hours, read-out: ED50 (the source's name).
Description: as §1, §2, §3
HCT15: colon adenocarcinoma
as §4, §5, §6, §7, §8, §9, §10, §11

Where [6] appears, read: A549 non small cell lung carcinoma, SRB, 48 hours, read-out: ED50 (the source's name).

Read-outs that look alike come from different tables or passages of the source. A value given as a limit tells only on which side of the number the result lay.

For `CC(=O)Oc1cc(C)ccc1C(O)(CO)COC(=O)Cc1ccccc1` (stereo not shown) [Compound 15-1, 10-Phenylacetoxy-8,9-dihydroxythymol acetate], the IC50 in assay [1] (A549, 48 h, read-out: ED50) is above 100 µM; in assay [2], 39.9 µM; in assay [3], 14.8 µM; in assay [4], 59.9 µM; in assay [5] it was 11.6 µM.
For the compound `C=C(CO)c1ccc(C)cc1OS(=O)(=O)c1ccc(C)cc1` [Compound 35-3, 2-(2-(4'-Toluenesulfoxy)-4-methylphenyl)-prop-2-ene-1-ol], the IC50 in assay [1] (setting [6]) came out at 13.1 µM; in assay [2], 14.6 µM; in assay [3] it was 17.9 µM; in assay [4], 14 µM; in assay [5] it was 13.9 µM.
For the compound `CC(=O)OCC1(c2ccc(OC(C)=O)cc2OC(C)=O)CO1` (stereo not shown) [Compound 27-5, 2-(2',4'-Diacetoxyphenyl)-3-acetoxy-1,2-epoxypropane], the IC50 in assay [1] (setting [6]) was 18.6 µM; in assay [2] it was 2.9 µM; in assay [3], 4.8 µM; in assay [4], 5 µM; in assay [5] it was 1.4 µM.
Take `COc1ccc(CC(=O)OCC(O)(CO)c2ccc(C)cc2OC(C)=O)cc1` (stereo not shown) [Compound 15-4, 10-(4-Methoxyphenylacetoxy)-8,9-dihydroxythymol acetate]: the IC50 in assay [1] (setting [6]) was above 100 µM; in assay [2] it was 21.3 µM; in assay [3], 12 µM; in assay [4] it was 55.7 µM; in assay [5] it was 11.2 µM.
For `C=C(CO)c1ccc(C)cc1OCc1ccc([N+](=O)[O-])cc1` [Compound 35, 2-(2-(4'-nitrobenzyloxy)-4-methylphenyl)-prop-2-ene-1-ol] the same measures were 4.6 µM, 0.3 µM, 9.1 µM, 5.5 µM and 8.7 µM.
For `CC(=O)Oc1cc(C)ccc1C(O)(CO)COC(=O)Cc1ccc([N+](=O)[O-])cc1` (stereo not shown) [Compound 15-2, 10-(4-Nitrophenylacetoxy)-8,9-dihydroxythymol acetate] the same measures were above 100 µM, 25.8 µM, 12.8 µM, 45.1 µM and 20.2 µM.
For `Cc1ccc(C2(COC(=O)Cc3ccc(F)cc3)CO2)c(OC(=O)C(C)C)c1` (stereo not shown) [Compound 11-3, 10-(4-Fluorophenylacetoxy)-8,9-epoxythymol isobutyrate] the same measures were 10.7 µM, 1 µM, 3.7 µM, 3.1 µM and 0.6 µM.
`Cc1ccc(C2(COC(=O)C(C)C)CO2)c(OC(=O)C(C)C)c1` (stereo not shown) [Compound 11, 10-isobutyryloxy-8,9-epoxythymol isobutyrate]: the IC50 in assay [1] (setting [6]) came to 40.5 µM; in assay [2], 8.3 µM; in assay [3] it was 11.6 µM; in assay [4], 37.2 µM; in assay [5], 10.8 µM.
`CC(=O)Oc1cc(C)ccc1C(O)(CO)COC(=O)c1ccccc1` (stereo not shown) [Compound 15-5, 10-Benzoxy-8,9-dihydroxythymol acetate]: the IC50 in assay [1] (setting [6]) was above 100 µM; in assay [2], 35.1 µM; in assay [3] it was 16.6 µM; in assay [4], 60.4 µM; in assay [5] it was 12.7 µM.
The matching figures for `Cc1ccc(C2(COC(=O)Cc3ccc([N+](=O)[O-])cc3)CO2)c(OC(=O)C(C)C)c1` (stereo not shown) [Compound 11-2, 10-(4-Nitrophenylacetoxy)-8,9-epoxythymol isobutyrate]: 32.1 µM, 14 µM, 9.9 µM, 28.4 µM and 8.7 µM.
For `CC(=O)Oc1ccccc1C1(COC(=O)c2ccc(C)cc2)CO1` (stereo not shown) [Compound 33-6] the same measures were 41.4 µM, 10.6 µM, 6.9 µM, 8.7 µM and 9.3 µM.
For `Cc1ccc(C(O)(CO)COC(=O)Cc2ccc(F)cc2)c(OC(=O)C(C)C)c1` (stereo not shown) [Compound 15-8, 10-(4-Fluorophenylacetoxy)-8,9-dihydroxythymol isobutyrate] the same measures were above 100 µM, 24.2 µM, 10.8 µM, 55.9 µM and 12.2 µM.
Consider `C=C(COS(=O)(=O)c1ccc(OC)cc1)c1ccc(C)cc1OC(C)=O` [13'-3, 10-(4-Methoxybenzenesulfoxy)-8,9-methylenethymol acetate], for which the IC50 in assay [1] (setting [6]) turned out to be 28.2 µM; in assay [2], 27.4 µM; in assay [3], 8.4 µM; in assay [5] it was 2.6 µM.
Consider `CC(=O)Oc1ccccc1C1(COC(=O)Cc2ccc([N+](=O)[O-])cc2)CO1` (stereo not shown) [Compound 33-2], for which the IC50 was determined as 44.3 µM in assay [1] (setting [6]); 24.4 µM in assay [2]; 14.2 µM in assay [3]; 16.4 µM in assay [4]; 17.3 µM in assay [5].
The matching figures for `CC(=O)Oc1cc(C)ccc1C1(COC(=O)Cc2ccc([N+](=O)[O-])cc2)CO1` (stereo not shown) [Compound 14-3, 10-(4-Nitrophenylacetoxy)-8,9-epoxythymol acetate]: 38.3 µM, 25.6 µM, 11 µM, 35.4 µM and 10.6 µM.
The matching figures for `C=C(CO)c1ccc(C)cc1OCc1ccc(C)cc1` [Compound 35-2, 2-(2-(4'-Methylbenzyloxy)-4-methylphenyl)-prop-2-ene-1-ol]: 10.9 µM, 9.6 µM, 8.8 µM, 7.2 µM and 9.1 µM.
On to `COc1ccc(C(=O)OCC(O)(CO)c2ccc(C)cc2OC(C)=O)cc1` (stereo not shown) [Compound 15-7, 10-(4-Methoxybenzoxy)-8,9-dihydroxythymol acetate], for which the IC50 in assay [1] (setting [6]) was above 100 µM; in assay [2] it was 38.2 µM; in assay [3], 14.9 µM; in assay [4], 63.3 µM; in assay [5] it was 15 µM.
For `CC(=O)Oc1ccc(C2(COC(=O)Cc3ccc([N+](=O)[O-])cc3)CO2)c(OC(C)=O)c1` (stereo not shown) [Compound 27-2, 2-(2',4'-Diacetoxyphenyl)-3-(4-nitrophenylacetoxy)-1,2-epoxypropane] the same measures were 23.5 µM, 2.7 µM, 3.8 µM, 4.1 µM and 2.4 µM.
For `CC(=O)OCC1(c2ccc(C)cc2OC(C)=O)CO1` (stereo not shown) [Compound 14-8, 10-Acetoxy-8,9-epoxythymol acetate] the same measures were 51.2 µM, 12.6 µM, 14.9 µM, 45.5 µM and 13.3 µM.
